According to patent US20180071317A1, “USE OF AGENTS THAT ALTER THE PERITUMORAL ENVIRONMENT FOR THE TREATMENT OF CANCER” (SERVICIO ANDALUZ DE SALUD, priority 2011, published 2018):

Assays:
[1] = test system: human primary fibroblasts (PHF); assay: Marker expression (immunohistochemistry) in human primary fibroblasts with SP alone or with NK1 antagonists; type: cell-based; conditions: SP 1 μM; 48 h;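 also: primary human dermal fibroblasts, immunostained with rabbit polyclonal antibodies against each marker, value is percentage of stained cells among all cells counted in 20 fields at 400× per section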
Protocol: These PHF were obtained and purified from samples obtained from the dermis of the skin of healthy volunteers as described in De Bari et al (De Bari et al. 2001). Briefly, small pieces of skin dermis were digested in a solution of hyaluronidase (Sigma-Aldrich, USA) at a concentration of 1 mg/ml for 15 minutes at 37° C. and then treated with 6 mg/ml collagenase type IV (Invitrogen) for 2 hours at 37° C. Then, the cells were washed, resuspended in DMEM culture medium with high glucose (Dulbecco's Modified Eagle's Medium, Invitrogen) supplemented with 1% antibiotic-antimycotic (Invitrogen) and 1% pyruvate Sodium (Invitrogen), and seeded in culture dishes at a concentration of 10,000 cells per square centimeter. When the cells reached confluence, adherent cells were detached using 0.5% sterile trypsin (Invitrogen) and used between passages 3 and 9. For tests shown below, the PHF were plated in 24-well plates at a concentration of 25,000 cells per well.
After 48 hours of culture, cells were harvested and paraffin cell-blocks for immunohistochemical analysis were constructed, as previously explained in Example 1.
In immunohistochemical assays the expression of the following markers were studied: TGFα (SAB4502953), TGF1 (SAB4502954), TGFβ2 (SAB4502956), TGFβ3 (SAB4502957), SPARC (HPA002989), MMP-3 (HPA007875) MMP-7 (SAB4501894), MMP-9 (SAB4501896), MMP-11 (SAB4501898), MMP-13 (SAB4501900) and MMP-14 (SAB4501901) using specific antibodies against them. All antibodies used were rabbit polyclonal antibodies obtained from Sigma-Aldrich and were used at a concentration of 1/1000. All experiments were carried out sixfold.
On each of the six sections cell counts were performed in 20 high power fields (400×) through an Olympus microscope (model CX31) to assess the immunostaining. On each of the fields total cell number and number of cells displaying immunostaining were counted, being then the percentage of cells displaying said immunostaining.

mononuclear cells = assay: Marker expression (immunohistochemistry) in mononuclear blood cells with SP alone or with NK1 antagonists; type: cell-based, human; conditions: SP 1 μM; 48 h
Description: Briefly, heparinized blood from healthy donors was centrifuged so as to separate the various components thereof. Red blood cells remained at the bottom of the tube. Above them was a small white layer composed of the white blood cells and above, on top of the tube, the blood plasma. The layer of white cells was distributed in a culture plate of 24 wells by adding in each the same concentration of blood plasma from the same donor, supplemented with 1% antibiotic-antimycotic (Invitrogen). In each well, approximately 1000 cells (PHF) skin from the dermis were further added, obtained as previously described in Example 2. […] After 48 hours of incubation, cells were collected and embedded in paraffin for expression analysis by immunohistochemical techniques (as described in Example 1).
The expression of TGF molecular markers (anti-TGF 2, SAB4502956) and NF-kB (anti-NF-kB, SAB4501992) using specific antibodies against them were analyzed. All antibodies used were rabbit polyclonal antibodies obtained from Sigma Aldrich and were used at a concentration of 1/1000. All experiments were carried out sixfold.

[2] = test system: fibroblasts (PHF) co-cultured with tumor cells of human endometrial carcinoma (AN3-CA); assay: Marker expression (IHC) in PHF co-cultured with AN3-CA tumor cells; type: cell-based; conditions: co-culture with AN3-CA; SP 1 μM; 48 h;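 also: cultured in fresh healthy-donor blood plasma with added antibiotic-antimycotic, run in six replicates, values give percent of fibroblasts positive for each marker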
Protocol: (§1) All cultures were maintained 48 hours, following which the same cells were included in paraffin blocks for subsequent analysis of the expression of different markers by immunohistochemistry (see Example 1). […] All experiments were carried out sixfold. Analyzed markers in fibroblast cells (stromal cells) were: TGF-α, TGF-β1, TGF-β2, TGF-β3, SPARC, MMP-3, MMP-7, MMP-9, MMP-11, MMP-13 and MMP-14.

[3] = test system: fibroblasts (PHF) co-cultured with human choriocarcinoma tumor cells (AC-1M32); assay: Marker expression (IHC) in PHF co-cultured with AC-1M32 tumor cells; type: cell-based; conditions: co-culture with AC-1M32; SP 1 μM; 48 h;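 also: Read-out is the percentage of PHF fibroblasts positive for each marker, with cells grown in fresh healthy-donor blood plasma, six replicates, reference being fibroblasts cultured alone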
Protocol: as §1

[4] = test system: fibroblasts (PHF) co-cultured with tumor cells, thyroid carcinoma (reference A-427); assay: Marker expression (IHC) in PHF co-cultured with thyroid carcinoma tumor cells; type: cell-based, human; conditions: co-culture with thyroid carcinoma cells; SP 1 μM; 48 h;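 also: grown in fresh plasma from a healthy human donor, read-out is percent of fibroblasts positive for each marker, compared with fibroblasts cultured alone, run in six replicates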
Protocol: as §1

[5] = test system: fibroblasts (PHF) co-cultured with tumor cells, thyroid carcinoma; assay: as above; type: cell-based, human; conditions: co-culture with thyroid carcinoma cells; SP 1 μM; 48 h
Protocol: as §1

[6] = test system: fibroblasts (PHF) co-cultured with human melanoma tumor cells (MEL-HO1); assay: Marker expression (IHC) in PHF co-cultured with MEL-HO1 tumor cells; type: cell-based; conditions: PHF co-cultured with MEL-HO1 + SP;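 also: values are the percentage of fibroblasts positive for each marker, with cultures grown in fresh healthy-donor blood plasma and each experiment run six times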
Protocol: as §1

[7] = test system: fibroblasts (PHF) co-cultivated with tumor cell lymphoblastic leukemia B (SDI); assay: Marker expression (IHC) in PHF co-cultured with SDI tumor cells; type: cell-based, human; conditions: PHF co-cultivated with SDI + SP
Protocol: as §1

[8] = test system: leukocyte cells (mono and polymorphonuclear) in co-culture with cells isolated from primary human tumors; assay: Marker expression (IHC) in leukocytes co-cultured with primary human tumor cells (colon, pancreatic, lung carcinoma, glioma, melanoma); type: cell-based; conditions: SP 1 μM;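 also: tumor cells and leukocytes came from the same patients, co-culture contents were paraffin-embedded for immunohistochemistry with antibodies to TGF-β2 or NF-kB, leukocytes cultured alone served as control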
Protocol: To check that the interaction of the human primary tumor cells with cells of the immune/inflammatory (mono and polymorphonuclear leukocytes) cells, stimulates the secretion of substances of importance for survival and tumor progression, cultures were carried out using sets of immune cells/inflammatory (mono and polymorphonuclear leukocytes) with tumor cells obtained directly from primary human tumors of the same patients.
The same method described in Example 7 and 9 was used to obtain tumor cells from primary human tumors. Similarly cultured immune cells/inflammatory (mono and polymorphonuclear leukocytes) were used as control and secondly, cultured tumor cells isolated from patients in the presence of immune cells/inflammatory (mono and polymorphonuclear leukocytes).
Then, paraffin blocks were prepared with the contents of each of the groups mentioned previously for expression studies using immunohistochemistry. On this occasion, in order to identify the secretion of substances with importance for the survival and progression of tumor the following markers were analyzed: TGF-β2 (SAB4502956) and NF-kB (SAB4501992) using specific antibodies against them. All antibodies used were rabbit polyclonal antibodies obtained from Sigma Aldrich and were used at a concentration of 1/1000. Immunohistochemical techniques were performed and evaluated as described in previous examples.

[9] = co-culture with cells isolated from colon carcinoma
[10] = co-culture with cells isolated from glioma
[11] = co-culture with cells isolated from lung carcinoma
[12] = co-culture with cells isolated from melanoma
[13] = co-culture with cells isolated from pancreatic carcinoma

Question: With `CSCC[C@H](NC(=O)[C@H](CC(C)C)NC(=O)CNC(=O)[C@H](Cc1ccccc1)NC(=O)[C@H](Cc1ccccc1)NC(=O)[C@H](CCC(N)=O)NC(=O)[C@H](CCC(N)=O)NC(=O)[C@@H]1CCCN1C(=O)[C@H](CCCCN)NC(=O)[C@@H]1CCCN1C(=O)[C@@H](N)CCCNC(=N)N)C(N)=O` [SP] as the compound, how does the “PHF cells expressing MMP-3” value [1] read?
Answer: 33.9 ± 2.2%

Question: And the “PHF cells expressing MMP-7” value [1]?
Answer: 46.2 ± 2.3%

Question: And the “PHF cells expressing MMP-9” value [1]?
Answer: 35.5 ± 2.5%

Question: And the “PHF cells expressing MMP-11” value [1]?
Answer: 7.8 ± 2.9%

Question: What about the “PHF cells expressing MMP-13” value [1] of the same compound?
Answer: 17.1 ± 2.6%

Question: And the “PHF cells expressing MMP-14” value [1]?
Answer: 47.3 ± 2.5%

Question: What about the “PHF cells expressing SPARC” value [1] of the same compound?
Answer: 16 ± 1.9%

Question: What about the “PHF cells expressing TGFα” value [1] of the same compound?
Answer: 16.5 ± 1.2%

Question: What about the “PHF cells expressing TGFβ 1” value [1] of the same compound?
Answer: 18.4 ± 1.3%

Question: What about the “PHF cells expressing TGFβ 2” value [1] of the same compound?
Answer: 24.6 ± 1.4%

Question: What about the “PHF cells expressing TGFβ 3” value [1] of the same compound?
Answer: 23.1 ± 1.7%

Question: And the “mononuclear cells expressing NF-kB” value (mononuclear cells)?
Answer: 25.7 ± 1.4%

Question: What about the “mononuclear cells expressing TGF-β” value (mononuclear cells) of the same compound?
Answer: 16.4 ± 1.2%

Question: What about the “PHF cells expressing MMP-3” value [2] of the same compound?
Answer: 44.2 ± 2.7%

Question: And the “PHF cells expressing MMP-7” value [2]?
Answer: 54.4 ± 2.1%

Question: And the “PHF cells expressing MMP-9” value [2]?
Answer: 54.3 ± 1.6%

Question: And the “PHF cells expressing MMP-11” value [2]?
Answer: 29.4 ± 1.8%

Question: What about the “PHF cells expressing MMP-13” value [2] of the same compound?
Answer: 49 ± 3.4%

Question: And the “PHF cells expressing MMP-14” value [2]?
Answer: 45.2 ± 3.5%

Question: And the “PHF cells expressing SPARC” value [2]?
Answer: 49 ± 1.5%

Question: And the “PHF cells expressing TGF-α” value [2]?
Answer: 42.4 ± 2%

Question: And the “PHF cells expressing TGF-β1” value [2]?
Answer: 33.3 ± 3.1%

Question: What about the “PHF cells expressing TGF-β2” value [2] of the same compound?
Answer: 43.5 ± 1.1%

Question: What about the “PHF cells expressing TGF-β3” value [2] of the same compound?
Answer: 44 ± 1.56%

Question: What about the “PHF cells expressing MMP-3” value [3] of the same compound?
Answer: 45.4 ± 2.7%

Question: What about the “PHF cells expressing MMP-7” value [3] of the same compound?
Answer: 57.1 ± 3.8%

Question: And the “PHF cells expressing MMP-9” value [3]?
Answer: 56.3 ± 2.4%

Question: And the “PHF cells expressing MMP-11” value [3]?
Answer: 28.4 ± 2.8%

Question: And the “PHF cells expressing MMP-13” value [3]?
Answer: 47 ± 3.7%

Question: What about the “PHF cells expressing MMP-14” value [3] of the same compound?
Answer: 51.2 ± 4.5%

Question: What about the “PHF cells expressing SPARC” value [3] of the same compound?
Answer: 46 ± 3.1%

Question: And the “PHF cells expressing TGF-α” value [3]?
Answer: 41.4 ± 1.1%

Question: What about the “PHF cells expressing TGF-β1” value [3] of the same compound?
Answer: 36.5 ± 2.1%

Question: And the “PHF cells expressing TGF-β2” value [3]?
Answer: 53.5 ± 3.1%

Question: What about the “PHF cells expressing TGF-β3” value [3] of the same compound?
Answer: 46 ± 3%

Question: What about the “PHF cells expressing MMP-3” value [4] of the same compound?
Answer: 43.1 ± 1.7%

Question: What about the “PHF cells expressing MMP-7” value [4] of the same compound?
Answer: 56.4 ± 3.8%

Question: And the “PHF cells expressing MMP-9” value [4]?
Answer: 51.4 ± 3.4%

Question: What about the “PHF cells expressing MMP-13” value [4] of the same compound?
Answer: 4.25 ± 3.6%

Question: And the “PHF cells expressing MMP-14” value [4]?
Answer: 49.1 ± 3.6%

Question: And the “PHF cells expressing SPARC” value [4]?
Answer: 48.1 ± 1.3%

Question: What about the “PHF cells expressing TGF-α” value [4] of the same compound?
Answer: 42.4 ± 1.2%

Question: And the “PHF cells expressing TGF-β1” value [4]?
Answer: 33.7 ± 1.3%

Question: And the “PHF cells expressing TGF-β2” value [4]?
Answer: 42.6 ± 1.1%

Question: What about the “PHF cells expressing TGF-β3” value [4] of the same compound?
Answer: 42.1 ± 1.5%

Question: And the “PHF cells expressing MMP-11” value [5]?
Answer: 29.4 ± 3.8%

Question: And the “cells expressing MMP-3” value [6]?
Answer: 44.5 ± 4.7%

Question: What about the “cells expressing MMP-7” value [6] of the same compound?
Answer: 55.5 ± 3.8%

Question: What about the “cells expressing MMP-9” value [6] of the same compound?
Answer: 53.3 ± 2.4%

Question: What about the “cells expressing MMP-11” value [6] of the same compound?
Answer: 24.4 ± 3.8%

Question: And the “cells expressing MMP-13” value [6]?
Answer: 46.1 ± 3.5%

Question: What about the “cells expressing MMP-14” value [6] of the same compound?
Answer: 46.2 ± 3.5%

Question: And the “cells expressing SPARC” value [6]?
Answer: 44.5 ± 1.4%

Question: And the “cells expressing TGF-α” value [6]?
Answer: 42.4 ± 3.2%

Question: And the “cells expressing TGF-β1” value [6]?
Answer: 42.5 ± 2.1%

Question: And the “cells expressing TGF-β2” value [6]?
Answer: 44.5 ± 1.9%

Question: What about the “cells expressing TGF-β3” value [6] of the same compound?
Answer: 43.5 ± 2.6%

Question: And the “cells expressing MMP-3” value [7]?
Answer: 53.4 ± 5.7%

Question: What about the “cells expressing MMP-7” value [7] of the same compound?
Answer: 59.1 ± 4.8%

Question: What about the “cells expressing MMP-9” value [7] of the same compound?
Answer: 59.3 ± 3.4%

Question: What about the “cells expressing MMP-11” value [7] of the same compound?
Answer: 47.4 ± 4.8%

Question: And the “cells expressing MMP-13” value [7]?
Answer: 49.5 ± 6.5%

Question: And the “cells expressing MMP-14” value [7]?
Answer: 53.9 ± 5.5%

Question: And the “cells expressing SPARC” value [7]?
Answer: 56 ± 6.2%

Question: What about the “cells expressing TGF-α” value [7] of the same compound?
Answer: 41.4 ± 3.1%

Question: And the “cells expressing TGF-β1” value [7]?
Answer: 42.5 ± 4.2%

Question: What about the “cells expressing TGF-β2” value [7] of the same compound?
Answer: 50.5 ± 1.1%

Question: What about the “cells expressing TGF-β3” value [7] of the same compound?
Answer: 51.4 ± 5.5%

Question: And the “Percentage of mononuclear leukocytes cells which expressed NF-kB” value [8, 9]?
Answer: 47.5 ± 4.6%

Question: And the “Percentage of mononuclear leukocytes cells which expressed TGF-β” value [8, 9]?
Answer: 36.5 ± 3.5%

Question: And the “Percentage of polymorphonuclear leukocytes cells which expressed NF-kB” value [8, 9]?
Answer: 36.6 ± 4.7%

Question: And the “Percentage of polymorphonuclear leukocytes cells which expressed TGF-β” value [8, 9]?
Answer: 45.8 ± 3.5%

Question: What about the “Percentage of mononuclear leukocytes cells expressing NF-kB” value [8, 10] of the same compound?
Answer: 41.6 ± 4.1%

Question: And the “Percentage of mononuclear leukocytes cells expressing TGF-β” value [8, 10]?
Answer: 41.7 ± 3.4%

Question: What about the “Percentage of polymorphonuclear leukocytes cells expressing NF-kB” value [8, 10] of the same compound?
Answer: 39.4 ± 4.2%

Question: And the “Percentage of polymorphonuclear leukocytes cells expressing TGF-β” value [8, 10]?
Answer: 39.7 ± 3.3%

Question: And the “Percentage of mononuclear leukocytes cells which expressed NF-kB” value [8, 11]?
Answer: 41.6 ± 4.2%

Question: What about the “Percentage of mononuclear leukocytes cells which expressed TGF-β” value [8, 11] of the same compound?
Answer: 42.7 ± 3.3%

Question: What about the “Percentage of polymorphonuclear leukocytes cells which expressed NF-kB” value [8, 11] of the same compound?
Answer: 35.5 ± 4.2%

Question: And the “Percentage of polymorphonuclear leukocytes cells which expressed TGF-β” value [8, 11]?
Answer: 38.7 ± 3.3%

Question: And the “Percentage of mononuclear leukocytes cells which expressed NF-kB” value [8, 12]?
Answer: 51.7 ± 5.3%

Question: What about the “Percentage of mononuclear leukocytes cells which expressed TGF-β” value [8, 12] of the same compound?
Answer: 49.6 ± 4.2%

Question: And the “Percentage of polymorphonuclear leukocytes cells which expressed NF-kB” value [8, 12]?
Answer: 56.6 ± 4.6%

Question: What about the “Percentage of polymorphonuclear leukocytes cells which expressed TGF-β” value [8, 12] of the same compound?
Answer: 54.5 ± 3.5%

Question: And the “Percentage of mononuclear leukocytes cells which expressed TGF-β” value [8, 13]?
Answer: 39.5 ± 4.5%

Question: And the “Percentage of polymorphonuclear leukocytes cells which expressed NF-kB” value [8, 13]?
Answer: 35.4 ± 4.2%

Question: And the “Percentage of polymorphonuclear leukocytes cells which expressed TGF-β” value [8, 13]?
Answer: 36.5 ± 3.1%
